In brackets after ≈: the same amount, converted by molar mass.
What was measured:
[1] = Competitive ripening (relative thermodynamic stability of non-solvated forms)
[2] = Visual solubility of Form B; format: physicochemical
Procedure: Solubility of D9-THC-naphthoylester, Form B (Batch 2) was determined by visual assessment in various solvents at RT and 50° C. Aliquots of solvent were added to 20 mg of solids at room temperature and 25 mg of solids at 50° C. until complete dissolution or until a maximum volume of 1 mL was added.

[3] = D9 solubility in the liquors at isolation temperature; format: physicochemical; conditions: organic solvent or mixture, thermodynamic from solid
Procedure: At the end of each experiment, suspensions were equilibrated at the isolation temperature (25 or 5° C.) for at least 18 hours and the solids and liquors separated by centrifugation at the isolation temperature. The Exo/D9/D8 ratio (Exo-D9-THC-naphthoylester impurity/D9-THC-naphthoylester/D8-THC-naphthoylester) was determined in both the isolated solids and the liquors, from which the % Exo-depletion in the isolated solids was calculated. Several solids were also isolated at elevated temperatures to assess the impact of the isolation temperature on Exo-impurity depletion.
In addition, the solubility of D9 in the liquors was determined in most of the explored solvents and used to estimate the yield.

CCCCCc1cc(OC(=O)c2ccc3ccccc3c2)c2c(c1)OC(C)(C)[C@@H]1CCC(C)=C[C@@H]21 [Form B, (6aR,10aR)-6a,7,8,10a-tetrahydro-6,6,9-trimethyl-3-pentyl-6H-dibenzo[b,d]pyran-1-yl ester]
Relative thermodynamic stability [1]: metastable form
Nature (thermodynamic stability of crystal form) ([1]; Table 6 summary): Metastable
solubility ([2]; alcohols, organic solvent or mixture, thermodynamic from solid, read-out: Solubility): < 10 mg/mL
solubility ([2]; common organic solvents, organic solvent or mixture, thermodynamic from solid, read-out: Solubility): > 100 mg/mL
solubility ([2]; organic solvent or mixture, thermodynamic from solid, solvent 1,4-Dioxane, RT, read-out: Visual Solubility at RT): > 404 mg/mL
solubility ([2]; organic solvent or mixture, thermodynamic from solid, solvent 2Me-THF, RT, read-out: Visual Solubility at RT): > 368 mg/mL
solubility ([2]; organic solvent or mixture, thermodynamic from solid, solvent Acetone/MeOH (1:3), 50° C., read-out: Visual Solubility at 50° C.): 25 to 40 mg/mL (≈ 53.3 to 85.4 mM)
solubility ([2]; organic solvent or mixture, thermodynamic from solid, solvent Acetone/MeOH (1:3), RT, read-out: Visual Solubility at RT): 10 to 20 mg/mL (≈ 21.3 to 42.7 mM)
solubility ([2]; organic solvent or mixture, thermodynamic from solid, solvent Acetone, RT, read-out: Visual Solubility at RT): 94 to 376 mg/mL (≈ 201 to 802 mM)
solubility ([2]; organic solvent or mixture, thermodynamic from solid, solvent BuOH/MeOH (1:3), 50° C., read-out: Visual Solubility at 50° C.): 26 to 51 mg/mL (≈ 55.5 to 109 mM)
solubility ([2]; organic solvent or mixture, thermodynamic from solid, solvent BuOH/MeOH (1:3), RT, read-out: Visual Solubility at RT): < 10 mg/mL
solubility ([2]; organic solvent or mixture, thermodynamic from solid, solvent Cyclohexane, RT, read-out: Visual Solubility at RT): 92 to 368 mg/mL (≈ 196 to 785 mM)
solubility ([2]; organic solvent or mixture, thermodynamic from solid, solvent DCM, RT, read-out: Visual Solubility at RT): > 404 mg/mL
solubility ([2]; organic solvent or mixture, thermodynamic from solid, solvent DMSO, 50° C., read-out: Visual Solubility at 50° C.): 25 to 50 mg/mL (≈ 53.3 to 107 mM)
solubility ([2]; organic solvent or mixture, thermodynamic from solid, solvent DMSO, RT, read-out: Visual Solubility at RT): 18 to 46 mg/mL (≈ 38.4 to 98.2 mM)
solubility ([2]; organic solvent or mixture, thermodynamic from solid, solvent EtOAc, RT, read-out: Visual Solubility at RT): > 372 mg/mL
solubility ([2]; organic solvent or mixture, thermodynamic from solid, solvent EtOH, 50° C., read-out: Visual Solubility at 50° C.): 25 to 50 mg/mL (≈ 53.3 to 107 mM)
solubility ([2]; organic solvent or mixture, thermodynamic from solid, solvent EtOH, RT, read-out: Visual Solubility at RT): < 9 mg/mL
solubility ([2]; organic solvent or mixture, thermodynamic from solid, solvent Heptane, 50° C., read-out: Visual Solubility at 50° C.): 127 to 254 mg/mL (≈ 271 to 542 mM)
solubility ([2]; organic solvent or mixture, thermodynamic from solid, solvent Heptane, RT, read-out: Visual Solubility at RT): 20 to 51 mg/mL (≈ 42.7 to 109 mM)
solubility ([2]; organic solvent or mixture, thermodynamic from solid, solvent IPA:water (9:1), 50° C., read-out: Visual Solubility at 50° C.): < 27 mg/mL
solubility ([2]; organic solvent or mixture, thermodynamic from solid, solvent IPA:water (9:1), RT, read-out: Visual Solubility at RT): < 10 mg/mL
solubility ([2]; organic solvent or mixture, thermodynamic from solid, solvent IPA, 50° C., read-out: Visual Solubility at 50° C.): 25 to 50 mg/mL (≈ 53.3 to 107 mM)
solubility ([2]; organic solvent or mixture, thermodynamic from solid, solvent IPA, RT, read-out: Visual Solubility at RT): < 10 mg/mL
solubility ([2]; organic solvent or mixture, thermodynamic from solid, solvent MIBK, RT, read-out: Visual Solubility at RT): 105 to 420 mg/mL (≈ 224 to 896 mM)
solubility ([2]; organic solvent or mixture, thermodynamic from solid, solvent MTBE, RT, read-out: Visual Solubility at RT): 93 to 372 mg/mL (≈ 198 to 794 mM)
solubility ([2]; organic solvent or mixture, thermodynamic from solid, solvent MeCN, 50° C., read-out: Visual Solubility at 50° C.): 25 to 50 mg/mL (≈ 53.3 to 107 mM)
solubility ([2]; organic solvent or mixture, thermodynamic from solid, solvent MeCN, RT, read-out: Visual Solubility at RT): 9 to 18 mg/mL (≈ 19.2 to 38.4 mM)
solubility ([2]; organic solvent or mixture, thermodynamic from solid, solvent MeOH, 50° C., read-out: Visual Solubility at 50° C.): < 25 mg/mL
solubility ([2]; organic solvent or mixture, thermodynamic from solid, solvent MeOH, RT, read-out: Visual Solubility at RT): < 9 mg/mL
solubility ([2]; organic solvent or mixture, thermodynamic from solid, solvent THF/MeOH (1:1), RT, read-out: Visual Solubility at RT): 98 to 392 mg/mL (≈ 209 to 836 mM)
solubility ([2]; organic solvent or mixture, thermodynamic from solid, solvent Toluene, RT, read-out: Visual Solubility at RT): > 376 mg/mL
solubility ([2]; thermodynamic from solid, solvent Water, 50° C., read-out: Visual Solubility at 50° C.): < 24 mg/mL
solubility ([2]; thermodynamic from solid, solvent Water, RT, read-out: Visual Solubility at RT): < 9 mg/mL
solubility ([2]; water): poorly soluble
solubility ([3]; 1,4-Dioxane/MeOH (1:9), 25 °C, batch 5, 1,4-Dioxane/MeOH (1:9), seed E/G, heat T 50, isolation T 25, SP 3, 4.8 mL/g): 6 mg/mL (≈ 12.8 mM)
solubility ([3]; Anisole/MeOH (1:9), 5 °C, batch 5, Anisole/MeOH (1:9), seed G, heat T 40, isolation T 5, SP 10, 30.0 mL/g): 9.8 mg/mL (≈ 20.9 mM)
solubility ([3]; Cyclohexanone/EtOH (1:9), 25 °C, batch 5, Cyclohexanone/EtOH (1:9), seed G/H, heat T 55, isolation T 25, SP 16, 5.0 mL/g): 21.1 mg/mL (≈ 45 mM)
solubility ([3]; Cyclohexanone/MeOH (1:9), 25 °C, batch 5, Cyclohexanone/MeOH (1:9), seed G/H, heat T 60, isolation T 25, SP 12, 10.0 mL/g): 7.6 mg/mL (≈ 16.2 mM)
solubility ([3]; DMF/MeOH (1:9), 25 °C, batch 5, DMF/MeOH (1:9), seed D, heat T 50, isolation T 25, SP 2, 8.9 mL/g): 5.2 mg/mL (≈ 11.1 mM)
solubility ([3]; DMF/MeOH (1:9), 25 °C, batch 5, DMF/MeOH (1:9), seed G, heat T 50, isolation T 25, SP 3, 9.4 mL/g): 4.7 mg/mL (≈ 10 mM)
solubility ([3]; DMF/MeOH (1:9), 25 °C, batch 5, DMF/MeOH (1:9), seed G, heat T 60, isolation T 25, SP 9, 10.0 mL/g): 5.1 mg/mL (≈ 10.9 mM)
solubility ([3]; DMSO/MeOH (1:9), 25 °C, batch 5, DMSO/MeOH (1:9), seed D, heat T 50, isolation T 25, SP 2, 8.2 mL/g): 4.1 mg/mL (≈ 8.75 mM)
solubility ([3]; DMSO/MeOH (1:9), 25 °C, batch 5, DMSO/MeOH (1:9), seed D/G, heat T 60, isolation T 25, SP 9, 10.0 mL/g): 4.2 mg/mL (≈ 8.96 mM)
solubility ([3]; DMSO/MeOH (1:9), 25 °C, batch 5, DMSO/MeOH (1:9), seed G, heat T 50, isolation T 25, SP 4, 9.4 mL/g): 3.7 mg/mL (≈ 7.9 mM)
solubility ([3]; DMSO/MeOH (3:7), 25 °C, batch 5, DMSO/MeOH (3:7), seed D, heat T 50, isolation T 25, SP 2, 7.1 mL/g): 7.5 mg/mL (≈ 16 mM)
solubility ([3]; DMSO/MeOH (3:7), 25 °C, batch 5, DMSO/MeOH (3:7), seed G, heat T 50, isolation T 25, SP 4, 5.2 mL/g): 7 mg/mL (≈ 14.9 mM)
solubility ([3]; DMSO/acetone/MeOH (1.5:1.5:7), 25 °C, batch 5, DMSO/acetone/MeOH (1.5:1.5:7), seed D, heat T 50, isolation T 25, SP 2, 5.0 mL/g): 9.1 mg/mL (≈ 19.4 mM)
solubility ([3]; DMSO/acetone/MeOH (1.5:1.5:7), 25 °C, batch 5, DMSO/acetone/MeOH (1.5:1.5:7), seed G, heat T 50, isolation T 25, SP 4, 5.1 mL/g): 7.2 mg/mL (≈ 15.4 mM)
solubility ([3]; EtOAc/EtOH (1:9), 25 °C, batch 5, EtOAc/EtOH (1:9), seed H, heat T 55, isolation T 25, SP 21, 10.0 mL/g): 12 mg/mL (≈ 25.6 mM)
solubility ([3]; EtOAc/MeOH (1:3), 5 °C, batch 5, EtOAc/MeOH (1:3), seed G, heat T 25, isolation T 5, SP 11, 30.0 mL/g): 11.2 mg/mL (≈ 23.9 mM)
solubility ([3]; IPA, 25 °C, batch 5, IPA, seed G/H, heat T 50, isolation T 25, SP 14, 10.0 mL/g): 7.3 mg/mL (≈ 15.6 mM)
solubility ([3]; IPA/water (95:5), 25 °C, batch 5, IPA/water (95:5), seed G/H, heat T 60, isolation T 25, SP 12, 10.0 mL/g): 4.5 mg/mL (≈ 9.6 mM)
